# Where two headings read alike, the source gives them in different places.
# Legend:
# HCV genotype 1b replicon = experiment: HCV replicon assay, genotype 1b replicon EC50; assay type: cell-based, Hepatitis C virus; details: Hepatitis C virus, HCV replicon, genotype 1b, read-out: EC50 [gt-1b]
# Summary of the method: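 Replicon cells (Neo^r, some luciferase:Neo^r fusion); G418 removed at plating; compound dilution series, 24-48 h. Readout: RNA by 32P-probe hybridization/protection or TaqMan, normalized to cyclophilin A RNA, or luciferase. EC50 vs DMSO control, 4-parameter fit.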
# [1] = biological target: HCV NS3/4A protease genotype 1b (Hepatitis C virus genotype 1b, UniProt P26663); experiment: HCV NS3/4A protease time-resolved fluorescence (TRF) assay, Ki against genotype 1b; assay type: biochemical; details: IC50 [gt-1b], NS3/4A protease TRF assay, genotype 1b enzyme 0.2 nM
# Summary of the method: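 NS3/4A enzyme was preincubated 30 min with inhibitor in 50 mM HEPES pH 7.5, 150 mM NaCl, 15% glycerol, 0.15% Triton X-100, 10 mM DTT, 0.1% PEG 8000; 25 nM europium TRF peptide substrate added, 2.5 h at room temperature. Enzyme: 0.2 nM (1b), 0.4 nM (A156T), 0.025 nM (3a). Ki from IC50 via Cheng-Prusoff.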
Compound,EC50 (HCV genotype 1b replicon) [pM],IC50 [1] [pM],EC50 (HCV genotype 1b replicon; K+ salt) [pM],IC50 ([1]; K+ salt) [pM]
"COCC1(S(=O)(=O)NC(=O)[C@@]23C[C@H]2/C=C\CCCCC[C@H](NC(=O)OC(C)(C)C)C(=O)N2C[C@@]4(CCc5c(c(C(F)F)nc6ccc(OC)cc56)O4)C[C@H]2C(=O)N3)CC1 [Example 476, tert-butyl [(2R,6S,12Z,13aS,14aR,16aS)-5′-(difluoromethyl)-9′-methoxy-14a-({[1-(methoxymethyl)cyclopropyl]sulfonyl}carbamoyl)-5,16-dioxo-1,1′,2′,5,6,7,8,9,10,11,13a,14,14a,15,16,16a-hexadecahydrospiro[cyclopropa[e]pyrrolo[1,2-a][1,4]diazacyclopentadecine-2,3′-pyrano[2,3-c]quinolin]-6-yl]carbamate]",4350,12,–,–
"CC[C@H](C)OC(=O)N[C@H]1CCCCC/C=C\[C@@H]2C[C@@]2(C(=O)NS(=O)(=O)C2(COC)CC2)NC(=O)[C@@H]2C[C@]3(CCc4c(c(C(F)F)nc5ccc(OC)cc45)O3)CN2C1=O [Example 477, (2S)-butan-2-yl [(2R,6S,12Z,13aS,14aR,16aS)-5′-(difluoromethyl)-9′-methoxy-14a-({[1-(methoxymethyl)cyclopropyl]sulfonyl}carbamoyl)-5,16-dioxo-1,1′,2′,5,6,7,8,9,10,11,13a,14,14a,15,16,16a-hexadecahydrospiro[cyclopropa[e]pyrrolo[1,2-a][1,4]diazacyclopentadecine-2,3′-pyrano[2,3-c]quinolin]-6-yl]carbamate]",–,–,5050,19
"COCC1(S(=O)(=O)NC(=O)[C@@]23C[C@H]2/C=C\CCCCC[C@H](NC(=O)O[C@@H](C)C(C)C)C(=O)N2C[C@@]4(CCc5c(c(C(F)F)nc6ccc(OC)cc56)O4)C[C@H]2C(=O)N3)CC1 [Example 478, (2S)-3-methylbutan-2-yl [(2R,6S,12Z,13aS,14aR,16aS)-5′-(difluoromethyl)-9′-methoxy-14a-({[1-(methoxymethyl)cyclopropyl]sulfonyl}carbamoyl)-5,16-dioxo-1,1′,2′,5,6,7,8,9,10,11,13a,14,14a,15,16,16a-hexadecahydrospiro[cyclopropa[e]pyrrolo[1,2-a][1,4]diazacyclopentadecine-2,3′-pyrano[2,3-c]quinolin]-6-yl]carbamate]",5800,16,–,–
"CCc1nc2ccc(OCCCOC)cc2c2c1O[C@]1(CC2)C[C@H]2C(=O)N[C@]3(C(=O)NS(=O)(=O)C4(C)CC4)C[C@H]3/C=C\CCCCC[C@H](NC(=O)OC(C)(C)C)C(=O)N2C1 [Example 479, tert-butyl [(2R,6S,12Z,13aS,14aR,16aS)-5′-ethyl-9′-(3-methoxypropoxy)-14a-{[(1-methylcyclopropyl)sulfonyl]carbamoyl}-5,16-dioxo-1,1′,2′,5,6,7,8,9,10,11,13a,14,14a,15,16,16a-hexadecahydrospiro[cyclopropa[e]pyrrolo[1,2-a][1,4]diazacyclopentadecine-2,3′-pyrano[2,3-c]quinolin]-6-yl]carbamate]",1050,5,–,–
"CCc1nc2ccc(OC)cc2c2c1O[C@]1(CC2)C[C@H]2C(=O)N[C@]3(C(=O)NS(=O)(=O)C4(C)CC4)C[C@H]3/C=C\CCCCC[C@H](NC(=O)c3sccc3C)C(=O)N2C1 [Example 480, (2R,6S,12Z,13aS,14aR,16aS)-5′-ethyl-9′-methoxy-N-[(1-methylcyclopropyl)sulfonyl]-6-{[(3-methylthiophen-2-yl)carbonyl]amino}-5,16-dioxo-1,1′,2′,6,7,8,9,10,11,13a,14,15,16,16a-tetradecahydrospiro[cyclopropa[e]pyrrolo[1,2-a][1,4]diazacyclopentadecine-2,3′-pyrano[2,3-c]quinoline]-14a(5H)-carboxamide]",266,6,–,–
"CCc1nc2ccc(OC)cc2c2c1O[C@]1(CC2)C[C@H]2C(=O)N[C@]3(C(=O)NS(=O)(=O)C4(C)CC4)C[C@H]3/C=C\CCCCC[C@H](NC(=O)c3c(C)n[nH]c3C)C(=O)N2C1 [Example 485, (2R,6S,12Z,13aS,14aR,16aS)-6-{[(3,5-dimethyl-1H-pyrazol-4-yl)carbonyl]amino}-5′-ethyl-9′-methoxy-N-[(1-methylcyclopropyl)sulfonyl]-5,16-dioxo-1,1′,2′,6,7,8,9,10,11,13a,14,15,16,16a-tetradecahydrospiro[cyclopropa[e]pyrrolo[1,2-a][1,4]diazacyclopentadecine-2,3′-pyrano[2,3-c]quinoline]-14a(5H)-carboxamide]",306,5,–,–
"CCc1nc2ccc(OC)cc2c2c1O[C@]1(CC2)C[C@H]2C(=O)N[C@]3(C(=O)NS(=O)(=O)C4(C)CC4)C[C@H]3/C=C\CCCCC[C@H](NC(=O)O[C@@H](C)C3CC3)C(=O)N2C1 [Example 486, (1S)-1-cyclopropylethyl [(2R,6S,12Z,13aS,14aR,16aS)-5′-ethyl-9′-methoxy-14a-{[(1-methylcyclopropyl)sulfonyl]carbamoyl}-5,16-dioxo-1,1′,2′,5,6,7,8,9,10,11,13a,14,14a,15,16,16a-hexadecahydrospiro[cyclopropa[e]pyrrolo[1,2-a][1,4]diazacyclopentadecine-2,3′-pyrano[2,3-c]quinolin]-6-yl]carbamate]",15200,10,–,–
"CCc1nc2ccc(OCCCOC)cc2c2c1O[C@]1(CC2)C[C@H]2C(=O)N[C@]3(C(=O)NS(=O)(=O)C4(C)CC4)C[C@H]3/C=C\CCCCC[C@H](NC(=O)O[C@@H](C)C(C)C)C(=O)N2C1 [Example 487, (2S)-3-methylbutan-2-yl [(2R,6S,12Z,13aS,14aR,16aS)-5′-ethyl-9′-(3-methoxypropoxy)-14a-{[(1-methylcyclopropyl)sulfonyl]carbamoyl}-5,16-dioxo-1,1′,2′,5,6,7,8,9,10,11,13a,14,14a,15,16,16a-hexadecahydrospiro[cyclopropa[e]pyrrolo[1,2-a][1,4]diazacyclopentadecine-2,3′-pyrano[2,3-c]quinolin]-6-yl]carbamate]",–,–,343,5
"COc1ccc2nc(C(F)(F)F)c3c(c2c1)[C@](C)(O)C[C@]1(C[C@H]2C(=O)N[C@]4(C(=O)NS(=O)(=O)C5(C)CC5)C[C@H]4/C=C\CCCCC[C@H](NC(=O)OC(C)(C)C)C(=O)N2C1)O3 [Example 489, tert-butyl [(1′R,2S,6S,12Z,13aS,14aR,16aS)-1′-hydroxy-9′-methoxy-1′-methyl-14a-{[(1-methylcyclopropyl)sulfonyl]carbamoyl}-5,16-dioxo-5′-(trifluoromethyl)-1,1′,2′,5,6,7,8,9,10,11,13a,14,14a,15,16,16a-hexadecahydrospiro[cyclopropa[e]pyrrolo[1,2-a][1,4]diazacyclopentadecine-2,3′-pyrano[2,3-c]quinolin]-6-yl]carbamate]",4220,16,–,–
"CCc1nc2ccc(OC)cc2c2c1O[C@]1(CC2)C[C@H]2C(=O)N[C@]3(C(=O)NS(=O)(=O)C4(C)CC4)C[C@H]3/C=C\CCCCC[C@H](NC(=O)c3sccc3F)C(=O)N2C1 [Example 490, (2R,6S,12Z,13aS,14aR,16aS)-5′-ethyl-6-{[(3-fluorothiophen-2-yl)carbonyl]amino}-9′-methoxy-N-[(1-methylcyclopropyl)sulfonyl]-5,16-dioxo-1,1′,2′,6,7,8,9,10,11,13a,14,15,16,16a-tetradecahydrospiro[cyclopropa[e]pyrrolo[1,2-a][1,4]diazacyclopentadecine-2,3′-pyrano[2,3-c]quinoline]-14a(5H)-carboxamide]",464,17,–,–
"CC(C)COC(=O)N[C@H]1CCCCC/C=C\[C@@H]2C[C@@]2(C(=O)NS(=O)(=O)C2(C)CC2)NC(=O)[C@@H]2C[C@]3(CCc4c(c(C(F)(F)F)nc5ccc(OCF)cc45)O3)CN2C1=O [Example 491, 2-methylpropyl [(2R,6S,12Z,13aS,14aR,16aS)-9′-(fluoromethoxy)-14a-{[(1-methylcyclopropyl)sulfonyl]carbamoyl}-5,16-dioxo-5′-(trifluoromethyl)-1,1′,2′,5,6,7,8,9,10,11,13a,14,14a,15,16,16a-hexadecahydrospiro[cyclopropa[e]pyrrolo[1,2-a][1,4]diazacyclopentadecine-2,3′-pyrano[2,3-c]quinolin]-6-yl]carbamate]",–,–,2530,3
"CC(C)(C)OC(=O)N[C@H]1CCCCC/C=C\[C@@H]2C[C@@]2(C(=O)NS(=O)(=O)C2(C)CC2)NC(=O)[C@@H]2C[C@]3(CCc4c(c(C(F)(F)F)nc5ccc(OCCO[Si](C)(C)C(C)(C)C)cc45)O3)CN2C1=O [Example 492, tert-butyl [(2R,6S,12Z,13aS,14aR,16aS)-9′-(2-{[tert-butyl(dimethyl)silyl]oxy}ethoxy)-14a-{[(1-methylcyclopropyl)sulfonyl]carbamoyl}-5,16-dioxo-5′-(trifluoromethyl)-1,1′,2′,5,6,7,8,9,10,11,13a,14,14a,15,16,16a-hexadecahydrospiro[cyclopropa[e]pyrrolo[1,2-a][1,4]diazacyclopentadecine-2,3′-pyrano[2,3-c]quinolin]-6-yl]carbamate]",1390,44,–,–
"COc1ccc2nc(C(F)F)c3c(c2c1)CC[C@]1(C[C@H]2C(=O)N[C@]4(C(=O)NS(=O)(=O)C5(C)CC5)C[C@H]4/C=C\CCCCC[C@H](NC(=O)OC4(C)CCC4)C(=O)N2C1)O3 [Example 493, 1-methylcyclobutyl [(2R,6S,12Z,13aS,14aR,16aS)-5′-(difluoromethyl)-9′-methoxy-14a-{[(1-methylcyclopropyl)sulfonyl]carbamoyl}-5,16-dioxo-1,1′,2′,5,6,7,8,9,10,11,13a,14,14a,15,16,16a-hexadecahydrospiro[cyclopropa[e]pyrrolo[1,2-a][1,4]diazacyclopentadecine-2,3′-pyrano[2,3-c]quinolin]-6-yl]carbamate]",–,–,283,3
